Data as given in US8106055B2, “Substituted amide compounds” (Gruenenthal GmbH, priority 2007, dated 2012).

Assays:
human μ opiate receptor = molecular target: T1, human μ opiate receptor (Homo sapiens, UniProt P35372); experiment: Affinity for the human μ opiate receptor ([3H]-naloxone displacement, CHO-K1 receptor membrane preparation, SPA); type: binding; conditions: 1.5 h, Table 3, to be read in the same way as Table 1; test concentration 1 μM; read-out: μ
T1 construct: purchased PerkinElmer Life Sciences, Zaventem, Belgium RB-HOM; host or cells: CHO-K1 cells (membrane preparation)
Protocol: Binding data of the compounds on the μ opioid receptor and data on the inhibition of reuptake of serotonin (5-HT) are given in Table 1. The data for the μ receptor were measured at a test concentration of 1 μM, and those for the serotonin reuptake at 10 μM. The values are stated in % inhibition.
Investigation of the Activity of the Compounds of the Invention Method for Determining the Affinity for the Human μ Opiate Receptor
The receptor affinity for the human p opiate receptor is determined in a homogeneous set-up in microtitre plates. For this, dilution series of the substances to be tested are incubated with a receptor membrane preparation (15-40 μg of protein/250 μl of incubation batch) of CHO-K1 cells which express the human p opiate receptor (RB-HOM receptor membrane preparation from PerkinElmer Life Sciences, Zaventem, Belgium) in the presence of 1 nmol/l of the radioactive ligand [^3H]-naloxone (NET719, PerkinElmer Life Sciences, Zaventem, Belgium) and 1 mg of WGA-SPA-Beads (wheat germ agglutinin SPA beads from Amersham/Pharmacia, Freiburg, Germany) in a total volume of 250 μl for 90 minutes at room temperature. 50 mmol/l of Tris-HCl supplemented with 0.06% of bovine serum albumin is used as the incubation buffer. 100 μmol/l of naloxone are additionally added for determination of the non-specific binding. After the end of the ninety-minute incubation time, the microtitre plates are centrifuged for 20 minutes at 1,000 g and the radioactivity is measured in a β-counter (Microbeta-Trilux, PerkinElmer Wallac, Freiburg, Germany). The percentage displacement of the radioactive ligand from its binding to the human p opiate receptor is determined at a concentration of the test substances of 1 μmol/l and stated as the percentage inhibition of the specific binding. Starting from the percentage displacement by various concentrations of the test substances, IC50 inhibitory concentrations which cause a 50 percent displacement of the radioactive ligand are calculated. By conversion by means of the Cheng-Prusoff relationship, Ki values for the test substances are obtained.

[1] = molecular target: T2, bradykinin 1 receptor (B1R) of the rat (Rattus norvegicus, UniProt P97583); experiment: Functional investigation on the rat bradykinin 1 receptor (B1R), Ca2+ FLIPR assay in CHO K1 rB1R cells; type: cell-based; conditions: CHO-K1, B1R antagonism rat; test substance 10 μM; Ca2+ FLIPR, CHO K1 rB1R cells; read-out: B1R Ant. r [10 μM] % Inhibition
T2 construct: expressed in transfected cells; host or cells: CHO K1 cells
T2 sequence (P97583 1-337): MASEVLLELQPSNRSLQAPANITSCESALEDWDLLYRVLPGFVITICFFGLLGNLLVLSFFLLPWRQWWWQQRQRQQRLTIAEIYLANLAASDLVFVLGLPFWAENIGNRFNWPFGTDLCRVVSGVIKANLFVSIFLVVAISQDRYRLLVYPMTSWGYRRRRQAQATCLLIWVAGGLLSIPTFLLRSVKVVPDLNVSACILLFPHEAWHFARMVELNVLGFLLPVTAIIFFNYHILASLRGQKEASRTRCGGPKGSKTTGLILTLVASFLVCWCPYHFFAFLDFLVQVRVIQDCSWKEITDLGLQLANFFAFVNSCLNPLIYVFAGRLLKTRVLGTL
How it was run: (§1)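 Cells were dye-loaded with Fluo-4 plus probenecid, then test substances added and Ca2+ influx compared with agonist control for % activation. After 10-20 min, EC80 agonist (Lys-Des-Arg9-bradykinin human; Des-Arg9-bradykinin rat) was applied; suppression gave % inhibition and IC50 values.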

[2] = molecular target: T3, human bradykinin 1 receptor (B1R) (Homo sapiens, UniProt P46663); experiment: Functional investigation on the human bradykinin 1 receptor (B1R), Ca2+ FLIPR assay in CHO K1 hB1R cells; type: cell-based; conditions: CHO-K1, B1R antagonism human; test substance 10 μM; Ca2+ FLIPR, CHO K1 hB1R cells; read-out: B1R Ant. h [10 μM] % Inhibition
T3 construct: expressed in transfected cells; host or cells: CHO K1 cells
T3 sequence (P46663 1-353): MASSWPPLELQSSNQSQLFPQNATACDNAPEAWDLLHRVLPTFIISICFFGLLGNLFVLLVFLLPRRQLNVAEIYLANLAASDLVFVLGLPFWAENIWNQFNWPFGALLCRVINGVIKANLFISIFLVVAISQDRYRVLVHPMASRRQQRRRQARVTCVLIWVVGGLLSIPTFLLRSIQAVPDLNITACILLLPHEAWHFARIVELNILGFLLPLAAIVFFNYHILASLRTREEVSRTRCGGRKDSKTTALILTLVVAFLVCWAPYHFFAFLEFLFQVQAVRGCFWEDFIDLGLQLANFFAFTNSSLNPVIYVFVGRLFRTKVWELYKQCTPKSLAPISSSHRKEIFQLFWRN
How it was run: as §1

T1 sequence (P35372 whole entry): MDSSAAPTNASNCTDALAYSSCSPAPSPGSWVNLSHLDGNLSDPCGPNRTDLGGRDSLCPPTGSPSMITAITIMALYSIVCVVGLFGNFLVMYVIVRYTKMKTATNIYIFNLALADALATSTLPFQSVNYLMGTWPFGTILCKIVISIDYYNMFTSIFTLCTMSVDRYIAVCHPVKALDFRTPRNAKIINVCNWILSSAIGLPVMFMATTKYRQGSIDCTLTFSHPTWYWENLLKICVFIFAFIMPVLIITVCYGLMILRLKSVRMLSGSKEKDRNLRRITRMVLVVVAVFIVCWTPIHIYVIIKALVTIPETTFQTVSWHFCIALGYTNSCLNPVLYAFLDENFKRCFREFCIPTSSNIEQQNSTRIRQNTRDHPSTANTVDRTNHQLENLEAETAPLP

Structure (SMILES) | inhibition at 1 µM (human μ opiate receptor) [%] | inhibition at 10 µM [1] [%] | inhibition at 10 µM [2] [%]
COc1cc(C)c(S(=O)(=O)N2CCCCC2COCC(=O)NC2CCC(C(c3ccccc3)N3CCOCC3)CC2)c(C)c1 (stereo not drawn) [Example 699, 2-((1-(4-methoxy-2,6-dimethylphenylsulfonyl)piperidin-2-yl)methoxy)-N-(4-(morpholino(phenyl)methyl)cyclohexyl)acetamide] | 15 | 104 | 90
COc1cc(C)c(S(=O)(=O)N(C)CCOCC(=O)NCC2CCC(C(CCc3ccccc3)N3CCCC3)CC2)c(C)c1 (stereo not drawn) [Example 720, 2-(2-(4-methoxy-N,2,6-trimethylphenylsulfonamido)ethoxy)-N-((4-(3-phenyl-1-(pyrrolidin-1-yl)propyl)cyclohexyl)methyl)acetamide] | 26 | 101 | 101
COc1cc(C)c(S(=O)(=O)N2CCC(OCC(=O)NC3CCC(C(c4ccccc4)N4CCN(C)CC4)CC3)C2)c(C)c1 (stereo not drawn) [Example 688, 2-(1-(4-methoxy-2,6-dimethylphenylsulfonyl)pyrrolidin-3-yloxy)-N-(4-((4-methylpiperazin-1-yl)(phenyl)methyl)cyclohexyl)acetamide] | 20 | 94 | 103
CN(CCOCC(=O)NC1CCC(C(c2ccccc2)N2CCOCC2)CC1)S(=O)(=O)c1ccc(Cl)cc1Cl (stereo not drawn) [Example 680, 2-(2-(2,4-dichloro-N-methylphenylsulfonamido)ethoxy)-N-(4-(morpholino(phenyl)methyl)cyclohexyl)acetamide] | 4 | 23 | 21
CN(CCOCC(=O)NCC1CCC(C(c2ccccc2)N2CCOCC2)CC1)S(=O)(=O)c1c(Cl)cc(C(F)(F)F)cc1Cl (stereo not drawn) [Example 727, 2-(2-(2,6-dichloro-N-methyl-4-(trifluoromethyl)phenylsulfonamido)ethoxy)-N-((4-(morpholino(phenyl)methyl)cyclohexyl)methyl)acetamide] | 10 | 29 | 16
O=C(COCC1CCCN1S(=O)(=O)c1c(Cl)cc(Cl)cc1Cl)NC1CCC(C(CCc2ccccc2)N2CCOCC2)CC1 (stereo not drawn) [Example 696, N-(4-(1-morpholino-3-phenylpropyl)cyclohexyl)-2-((1-(2,4,6-trichlorophenylsulfonyl)pyrrolidin-2-yl)methoxy)acetamide] | 21 | 91 | 43
O=C(COC1CCN(S(=O)(=O)c2c(Cl)cc(Cl)cc2Cl)C1)NCC1CCC(C(c2ccccc2)N2CCOCC2)CC1 (stereo not drawn) [Example 743, N-((4-(morpholino(phenyl)methyl)cyclohexyl)methyl)-2-(1-(2,4,6-trichlorophenylsulfonyl)pyrrolidin-3-yloxy)acetamide] | 8 | 10 | -3
COc1cc(C)c(S(=O)(=O)N2CCCC(OCC(=O)NCC3CCC(C(CCc4ccccc4)N4CCOCC4)CC3)C2)c(C)c1 (stereo not drawn) [Example 748, 2-(1-(4-methoxy-2,6-dimethylphenylsulfonyl)piperidin-3-yloxy)-N-((4-(1-morpholino-3-phenylpropyl)cyclohexyl)methyl)acetamide] | 20 | 78 | 92
O=C(COCC1CCCN(S(=O)(=O)c2c(Cl)cc(Cl)cc2Cl)C1)NCC1CCC(C(CCc2ccccc2)N2CCCC2)CC1 (stereo not drawn) [Example 759, N-((4-(3-phenyl-1-(pyrrolidin-1-yl)propyl)cyclohexyl)methyl)-2-((1-(2,4,6-trichlorophenylsulfonyl)piperidin-3-yl)methoxy)acetamide] | 87 | 56 | 100
O=C(COCC1CCCN1S(=O)(=O)c1c(Cl)cc(Cl)cc1Cl)NCC1CCC(C(CCc2ccccc2)N2CCCC2)CC1 (stereo not drawn) [Example 752, N-((4-(3-phenyl-1-(pyrrolidin-1-yl)propyl)cyclohexyl)methyl)-2-((1-(2,4,6-trichlorophenylsulfonyl)pyrrolidin-2-yl)methoxy)acetamide] | 82 | 104 | 103
COc1cc(C)c(S(=O)(=O)N2CCCC(COCC(=O)NC3CCC(C(c4ccccc4)N4CCCC4)CC3)C2)c(C)c1 (stereo not drawn) [Example 654, 2-((1-(4-methoxy-2,6-dimethylphenylsulfonyl)piperidin-3-yl)methoxy)-N-(4-(phenyl(pyrrolidin-1-yl)methyl)cyclohexyl)acetamide] | 53 | 46 | 80
O=C(COC1CCN(S(=O)(=O)c2c(Cl)cc(Cl)cc2Cl)C1)NCC1CCC(C(c2ccccc2)N2CCCC2)CC1 (stereo not drawn) [Example 644, N-((4-(phenyl(pyrrolidin-1-yl)methyl)cyclohexyl)methyl)-2-(1-(2,4,6-trichlorophenylsulfonyl)pyrrolidin-3-yloxy)acetamide] | 59 | 52 | 73
COc1cc(C)c(S(=O)(=O)N2CCC(OCC(=O)NCC3CCC(C(CCc4ccccc4)N4CCCC4)CC3)C2)c(C)c1 (stereo not drawn) [Example 726, 2-(1-(4-methoxy-2,6-dimethylphenylsulfonyl)pyrrolidin-3-yloxy)-N-((4-(3-phenyl-1-(pyrrolidin-1-yl)propyl)cyclohexyl)methyl)acetamide] | 23 | 94 | 103
COc1cc(C)c(S(=O)(=O)N2CCC(OCC(=O)NC3CCC(C(c4ccccc4)N4CCCC4)CC3)C2)c(C)c1 (stereo not drawn) [Example 629, 2-(1-(4-methoxy-2,6-dimethylphenylsulfonyl)pyrrolidin-3-yloxy)-N-(4-(phenyl(pyrrolidin-1-yl)methyl)cyclohexyl)acetamide] | 37 | 67 | 96
O=C(COCC1CCCN1S(=O)(=O)c1c(Cl)cc(Cl)cc1Cl)NCC1CCC(C(c2ccccc2)N2CCCC2)CC1 (stereo not drawn) [Example 651, N-((4-(phenyl(pyrrolidin-1-yl)methyl)cyclohexyl)methyl)-2-((1-(2,4,6-trichlorophenylsulfonyl)pyrrolidin-2-yl)methoxy)acetamide] | 83 | 105 | 103
O=C(COC1CCCN(S(=O)(=O)c2c(Cl)cc(Cl)cc2Cl)C1)NCC1CCC(C(CCc2ccccc2)N2CCCC2)CC1 (stereo not drawn) [Example 729, N-((4-(3-phenyl-1-(pyrrolidin-1-yl)propyl)cyclohexyl)methyl)-2-(1-(2,4,6-trichlorophenylsulfonyl)piperidin-3-yloxy)acetamide] | 79 | 22 | 92
COc1cc(C)c(S(=O)(=O)N2CCCC(COCC(=O)NC3CCC(C(c4ccccc4)N4CCOCC4)CC3)C2)c(C)c1 (stereo not drawn) [Example 701, 2-((1-(4-methoxy-2,6-dimethylphenylsulfonyl)piperidin-3-yl)methoxy)-N-(4-(morpholino(phenyl)methyl)cyclohexyl)acetamide] | 2 | 49 | 16
